Assay results from patent publication US20080070265A1, “PEPTIDE-BASED IMMUNIZATION THERAPY FOR TREATMENT OF ATHEROSCLEROSIS” (CARDIO VAX, priority 2003, published 2008).

System: apoE−/− mice
Assay: Immunization of apoE−/− mice with peptide in Freund's adjuvant; size of atherosclerotic lesions in the proximal aorta
Assay type: in vivo
Settings: for effect of immunization on atherosclerosis: experimental animals (apoE−/− mice)
Experimental: It was hypothesized that the induction of protective immunity could depend on presentation of peptides derived from apoB100 and modified by adduct formation during oxidative modification of the LDL particle. Further, it was hypothesized that such peptides must have a sequence that (i) contains side chains susceptible to adduct formation, and (ii) permits them to bind to MHC class II molecules. The apoB100 sequence was analyzed to identify such motifs. […] A peptide containing this sequence was synthesized and used for immunization of apoE−/− mice. The effect on atherosclerosis was quantified by measuring the size of atherosclerotic lesions after 12 weeks.
8 week old female apoE−/− mice (B6, Apoe−/−, M&B, Ry, Denmark) were immunized with 100 μg of peptide SEQ. ID. NO. 1, and SEQ. ID. NO. 2, respectively, emulsified with Freund's complete adjuvant to a total volume of 50 μl. Mice were boosted after 2 and 4 weeks with 50 μg of peptide in Freund's incomplete adjuvant. A third group of mice consisting of age-matched male mice was injected according to the same scheme with phosphate-buffered saline (PBS) in adjuvant. 4 weeks after the last boost, mice were anesthetized with carbon dioxide and killed by exsanguination after cardiac puncture. After vascular perfusion with sterile RNase-free PBS, the heart and proximal aorta were removed, embedded in OCT compound, frozen and cryosectioned.
The size of atherosclerotic lesions in the proximal aorta was quantified by using Leica Qwin software (for details of the method, see Nicoletti et al., J. Clin. Invest. (1998)) Results were expressed as μm^2 average lesion area per cross-section, as well as relative lesion area, i.e., lesion area (μm^2) divided by total aortic cross-section area (μm^2). The Mann-Whitney U test used for comparisons between means.

Substance | effect of immunization on atherosclerosis | lesions larger than PBS controls (female apoE−/− mice, same immunization scheme, proximal aorta, p<0.05) [%] | lesion size versus control mice injected with PBS/adjuvant alone (apoE−/− mice, FIG. 1) | lesion size versus mice immunized with peptide SEQ. ID. NO. 2 (apoE−/− mice, FIG. 1) | reduction in lesion size compared to PBS controls (female apoE−/− mice, 100 μg peptide in Freund's complete adjuvant, boosts of 50 μg after 2 and 4 weeks, proximal aorta, p<0.05) [%] | reduction in lesion size compared with peptide SEQ. ID. NO. 2 immunized mice (female apoE−/− mice, same immunization scheme, proximal aorta, p<0.001) [%]
NH2-YSKVHNGSEILFSYFQDLVIT-COOH (H-YSKVHNGSEILFSYFQDLVIT-OH) [SEQ. ID. NO. 2] | aggravates atherosclerosis | 36 | – | – | – | –
NH2-PTVMDFRKFSRNYQLYKSVSLPS-COOH (H-PTVMDFRKFSRNYQLYKSVSLPS-OH) [SEQ. ID. NO. 1, amino acids 625-647 of the human apoB100 protein] | inhibition of atherosclerosis | – | significantly smaller lesions | significantly smaller | 42 | 62
